From US4044134A, “Fused pyrimidin-4(3H)-ones as antiallergy agents” (Pfizer Inc., priority 1976, dated 1977) come the findings set out here.

SMILES strings stand for the structures. Counter-ions that a name gives are not always drawn. Like-named read-outs stand apart in the source and are kept apart here.

This experiment deals with passive cutaneous anaphylaxis (PCA) reaction. Briefly: passive cutaneous anaphylaxis (PCA) test, i.v. or oral administration. The experiment is classed as in vivo, male Charles River Wistar rats. The following applies: Rattus norvegicus, read-out: degree (%) of protection, PCA test. The protocol:
In the PCA test, normal animals are injected intradermally (i.d.) with antibodies contained in serum obtained from actively sensitized animals. The animals are then challenged intravenously with antigen mixed with a dye such as Evans' Blue. The increased capillary-permeability caused by the antigen-antibody reaction causes the dye to leak from the site of the antibody injection. The test animals are then asphyxiated and the intensity of the reaction determined by measuring the diameter and intensity of the blue coloration on the inner surface of the animals skin. […] The ability of agents to interfere with PCA reactions is measured in male Charles River Wistar rats, 170-210 g. […] Hyperimmune antisera to hen egg albumin is prepared according to Orange, et al., J. Exptl. […] Forty-eight hours prior to antigen challenge the reaginic antisera is injected intradermally (i.d.) into the shaved skin of a normal rat's back; 5 hours before challenge the hyperimmune antisera is similarly injected; 5 hours later, at a third site, 60 mcg. histamine dihydrochloride is injected i.d. as a check for antihistaminic and unspecific types of blockage; the compounds of the instant invention or saline are then administered i.v. and immediately followed by 2.5 mg. Evan's blue dye and 5 mg. egg albumin in saline. In the case of oral administration Evan's blue dye and egg albumen are given five minutes after administration of the drug. Thirty minutes later the animals are asphyxiated using chloroform and the skin of the back removed and reversed for observation. A score is assigned each injection site equal to the product of the diameter of the site in mm. and a grade of 0.1, 0.5, 1, 2, 3 or 4 proportional to intensity of dye coloration. The scores for a given injection site are summed for each group of 8 animals and compared to the saline treated controls. The difference is expressed as percent blockade due to the compound employed. […] Disodium cromoglycate, a commerial antiallergy agent, is included for comparison. [drawing 3]

Take `CCOC(=O)c1nc2nc3cc(OCc4ccccc4)c(OC)cc3cc2c(=O)[nH]1` [COOC2 H5/H/H/OCH3/OC7 H7/H, ethyl 7-methoxy-8-benzyloxypyrimido[4,5-b]quinolin-4(3H)one-2-carboxylate]: under “iv, I.V.”, the inhibition in vivo at 0.3 mg/kg amounted to 23% and the inhibition in vivo at 3 mg/kg stood at 94%.
Take `CCOC(=O)c1nc2nc3cc(OCc4ccccc4)c(OCC)cc3cc2c(=O)[nH]1` [COOC2 H5/H/H/OC2 H5/OC7 H7/H]: under “iv, I.V.”, the inhibition in vivo at 0.1 mg/kg is 3%, the inhibition in vivo at 0.3 mg/kg was 30% and the inhibition in vivo at 3 mg/kg was 71%. Further, where the note is “Oral”, the inhibition in vivo at 10 mg/kg turned out to be 0% and the inhibition in vivo at 30 mg/kg turned out to be 0%.
For the compound `CCOC(=O)c1nc2nc3ccc([S+](C)[O-])cc3cc2c(=O)[nH]1` (stereo not drawn) [COOC2 H5/H/H/SOCH3/H/H, Ethyl 7-Methylsulfinylpyrimido[4,5-b]quinoline-4(3H)-One-2-Carboxylate], for the setting “iv, I.V.”, the inhibition in vivo at 0.03 mg/kg amounted to 0%, the inhibition in vivo at 0.3 mg/kg was 58% and the inhibition in vivo at 3 mg/kg came to 100%. The inhibition in vivo at 30 mg/kg (Oral) is 12%.
In the case of `CCCCOC(=O)c1nc2nc3ccccc3cc2c(=O)[nH]1` [COO(n-C4 H9)/H/H/H/H/H, n-Butylpyrimido[4,5-b]Quinolin-4(3H)-One-2-carboxylate], where the note is “iv, I.V.”, the inhibition in vivo at 0.03 mg/kg turned out to be 6% and the inhibition in vivo at 1 mg/kg came out at 90%. Also, the inhibition in vivo at 30 mg/kg (Oral) was determined as 50%.
`COc1cc2cc3c(=O)[nH]c(C)nc3nc2cc1OC` [CH3/H/H/OCH3/OCH3/H, 2-Methyl-7,8-Dimethoxypyrimido[4,5-b]Quinolin-4(3H)-One]: where the note is “iv, I.V.”, the inhibition in vivo at 0.03 mg/kg is 11%, the inhibition in vivo at 0.3 mg/kg was 45% and the inhibition in vivo at 3 mg/kg was 77%. For the setting “Oral”, the inhibition in vivo at 1 mg/kg amounted to 43% and the inhibition in vivo at 3 mg/kg is 67%.
With `CCCCOC(=O)c1nc2nc3cc(OC)c(O)cc3cc2c(=O)[nH]1` [COO-(n-C4 H9)/H/H/OH/OCH3/H, n-butyl 7-hydroxy-8-methoxypyrimido[4,5-b]quinolin-4(3H)one-2-carboxylate trifluoroacetate], for the setting “iv, I.V.”, the inhibition in vivo at 0.003 mg/kg came out at 52% and the inhibition in vivo at 3 mg/kg came to 100%. In addition, where the note is “Oral”, the inhibition in vivo at 10 mg/kg is 67%.
As for `COc1cc2cc3c(=O)[nH]c(C(=O)OCCO)nc3nc2cc1OC` [COOCH2 CH2 OH/H/H/OCH3/OCH3/H, 2-hydroxyethyl 7,8-Dimethoxy-pyrimidin[4,5-b]quinolin-4-(3H)-One-2-Carboxylate], where the note is “iv, I.V.”, the inhibition in vivo at 0.03 mg/kg was 92%, the inhibition in vivo at 0.3 mg/kg is 94% and the inhibition in vivo at 3 mg/kg worked out at 97%. Besides, under “Oral”, the inhibition in vivo at 10 mg/kg is 65%.
Turning to `CCOC(=O)c1nc2nc3ccc(SC)cc3cc2c(=O)[nH]1` [COOC2 H5/H/H/SCH3/H/H, Ethyl 7-Methylthiopyrimido[4,5-b]quinolin-4(3H)-One-2-Carboxylate], for the setting “iv, I.V.”, the inhibition in vivo at 0.03 mg/kg is 8%, the inhibition in vivo at 0.3 mg/kg was determined as 91% and the inhibition in vivo at 3 mg/kg is 88%. In addition, where the note is “Oral”, the inhibition in vivo at 1 mg/kg came to 0%, the inhibition in vivo at 3 mg/kg stood at 21%, the inhibition in vivo at 10 mg/kg turned out to be 66% and the inhibition in vivo at 30 mg/kg was found to be 100%.
As to `COc1cc2cc3c(=O)[nH]c(C(N)=O)nc3nc2cc1OC` [CONH2/H/H/OCH3/OCH3/H, 7,8-Dimethoxypyrimido[4,5-b]Quinolin-4(3H)-One-2-Carboxamide], the inhibition in vivo at 3 mg/kg (iv, I.V.) stood at 87%. The inhibition in vivo at 30 mg/kg (Oral) came out at 4%.
For the compound `CCOC(=O)c1nc2nc3cc4c(cc3cc2c(=O)[nH]1)OCCO4` [COOC2 H5/H/H/--O--CH2 CH2 --O--/H], where the note is “iv, I.V.”, the inhibition in vivo at 1 mg/kg was determined as 64% and the inhibition in vivo at 3 mg/kg was determined as 72%.
As to `COc1cc2cc3c(=O)[nH]c(C(C)=O)nc3nc2cc1OC` [COCH3/H/H/OCH3/OCH3/H, 2-Acetyl-7,8-Dimethoxypyrimido[4,5-b]quinoline-4(3H)-One], for the setting “iv, I.V.”, the inhibition in vivo at 0.1 mg/kg was 19%, the inhibition in vivo at 1 mg/kg is 21% and the inhibition in vivo at 3 mg/kg was 100%. Further, where the note is “Oral”, the inhibition in vivo at 10 mg/kg was 15%.
With `CCOC(=O)c1nc2nc3ccccc3cc2c(=O)[nH]1` [COOC2 H5/H/H/H/H/H, Ethyl Pyrimido[4,5-b]Quinolin-4-(3H)-One-2-Carboxylate], under “iv, I.V.”, the inhibition in vivo at 0.03 mg/kg was 30%, the inhibition in vivo at 0.1 mg/kg is 45%, the inhibition in vivo at 0.3 mg/kg stood at 82% and the inhibition in vivo at 1 mg/kg is 100%. In addition, under “iv, I.V.”, the inhibition in vivo at 3 mg/kg is 99% and the inhibition in vivo at 10 mg/kg is 100%. Where the note is “Oral”, the inhibition in vivo at 1 mg/kg came to 12%, the inhibition in vivo at 3 mg/kg stood at 69%, the inhibition in vivo at 30 mg/kg came to 72% and the inhibition in vivo at 60 mg/kg was 100%. For the same compound, the inhibition in vivo at 100 mg/kg (Oral) was found to be 80%.
Consider `CCOC(=O)c1nc2nc3cc4c(cc3cc2c(=O)[nH]1)OCO4` [COOC2 H5/H/H/--O--CH2 --O--, Ethyl 7,8-Methylenedioxypyrimido[4,5-b]Quinolin-4(3H)-One-2-Carboxylate], for which, under “iv, I.V.”, the inhibition in vivo at 0.1 mg/kg is 0% and the inhibition in vivo at 1 mg/kg came to 70%. The inhibition in vivo at 30 mg/kg (Oral) is 0%.
Consider `CCCCOC(=O)c1nc2nc3cc(OC)c(OC)cc3cc2c(=O)[nH]1` [COO(n-C4 H9)/H/H/OCH3/OCH3/H], for which, for the setting “iv, I.V.”, the inhibition in vivo at 0.003 mg/kg was found to be 64%, the inhibition in vivo at 0.03 mg/kg was found to be 100%, the inhibition in vivo at 0.3 mg/kg was found to be 94% and the inhibition in vivo at 3 mg/kg was 90%. Further, under “Oral”, the inhibition in vivo at 30 mg/kg is 81%.
As to `CCOC(=O)c1nc2nc3cc(OC)ccc3cc2c(=O)[nH]1` [COOC2 H5/H/H/H/OCH3/H], where the note is “iv, I.V.”, the inhibition in vivo at 0.03 mg/kg was 0%, the inhibition in vivo at 0.3 mg/kg worked out at 20% and the inhibition in vivo at 3 mg/kg came to 90%. Also, the inhibition in vivo at 10 mg/kg (Oral) worked out at 43%.
In the case of `CCOC(=O)c1nc2nc3c(OC)c(OC)c(OC)cc3cc2c(=O)[nH]1` [COOC2 H5/H/H/OCH3/OCH3/OCH3], for the setting “iv, I.V.”, the inhibition in vivo at 0.03 mg/kg amounted to 33%, the inhibition in vivo at 0.3 mg/kg came to 23% and the inhibition in vivo at 3 mg/kg was 88%. The inhibition in vivo at 10 mg/kg (Oral) turned out to be 0%.
In the case of `CCOC(=O)c1nc2nc3cc(O)c(OC)cc3cc2c(=O)[nH]1` [COOC2 H5/H/H/OCH3/OH/H, Ethyl 7-Methoxy-8-Hydroxypyrimido[4,5-b]Quinolin-4(3H)One-2-Carboxylate], under “iv, I.V.”, the inhibition in vivo at 0.003 mg/kg came out at 0%, the inhibition in vivo at 0.3 mg/kg worked out at 100% and the inhibition in vivo at 3 mg/kg was found to be 100%.
With `COc1cc2cc3c(=O)[nH]c(C(=O)O)nc3nc2cc1OC` [COONa/H/H/OCH3/OCH3/H], the inhibition in vivo at 0.01 mg/kg (iv, I.V., 0.01 mg/kg) came to 71%. Further, where the note is “iv, I.V.”, the inhibition in vivo at 0.03 mg/kg was 96% and the inhibition in vivo at 0.1 mg/kg was 100%. Moreover, under “Oral”, the inhibition in vivo at 10 mg/kg was determined as 17%.
`O=C(O)c1nc2nc3ccc(O)cc3cc2c(=O)[nH]1` [COOH/H/H/OH/H/H, 7-hydroxypyrimido[4,5-b]quinolin-4(3H)one-2-carboxylic acid]: under “iv, I.V.”, the inhibition in vivo at 0.003 mg/kg is 4%, the inhibition in vivo at 0.03 mg/kg worked out at 91% and the inhibition in vivo at 3 mg/kg worked out at 100%.
In the case of `COc1cc2cc3c(=O)[nH]c(C(=O)NO)nc3nc2cc1OC` [CONHOH/H/H/OCH3/OCH3/H, 7,8-Dimethoxypyrimido-[4,5-b]-Quinolin-4(3H)-One-2-Hydroxamic Acid], for the setting “iv, I.V.”, the inhibition in vivo at 3 mg/kg is 92%. Moreover, the inhibition in vivo at 60 mg/kg (Oral) was determined as 3%.
Consider `O=C(O)c1nc2nc3ccccc3cc2c(=O)[nH]1` [COONa/H/H/H/H/H, Pyrimido[4,5-b]Quinolin-4(3H)-One-2-Carboxylic Acid Disodium Salt], for which, under “iv, I.V.”, the inhibition in vivo at 0.3 mg/kg stood at 68% and the inhibition in vivo at 1 mg/kg is 92%. In addition, for the setting “Oral”, the inhibition in vivo at 10 mg/kg came out at 0% and the inhibition in vivo at 100 mg/kg stood at 96%.
